Experimental data published in US10815219B2, “2,4-diaminoquinazoline derivatives for inhibiting endoplasmic reticulum (ER) stress” (The Board of Regents of the University of Oklahoma, priority 2017, dated 2020).
Where two headings read alike, the source gives them in different places.

Assays:
Assay type in all cases: cell-based, rat
ATF4 and CHOP protein = assay: Western blotting of ATF4 and CHOP in Tm-treated INS-1 cells; conditions: Tm 0.1 μg/mL, 9c 20 μM, FIG. 8C
From the text: We then determined the effect of 9c on the activation of the PERK pathway in β cells under ER stress. Activated PERK phosphorylates eukaryotic translation initiator factor 2a (eIF2α), which in turn attenuates general protein synthesis to relieve ER load. EIF2α phosphorylation also allows the selective translation of ATF4 mRNA, which encodes a transcription factor that induces the expression of the pro-apoptotic gene C/EBP-homologous protein (CHOP). Thus, we used ATF4 and CHOP expression levels as markers of PERK pathway activation. […] Together, our results that 9c inhibited the ER stress-mediated activation of all three UPR pathways indicate that 9c protects β cell survival by alleviating ER stress.
INS-1 cells were seeded in 60-mm dishes at 8×10^5 cells/dish and treated for the indicated times. Cells were then washed with PBS and lysed with lysis buffer (Cell Signaling Technology, Danvers, Mass.) containing EDTA (Thermo, IL) and phosphatase inhibitors (Thermo). Aliquots of 20 μg total protein were separated on 7% SDS-PAGE gels (Life Technologies) and transferred to PVDF membranes (Life Technologies). The membranes were probed with primary antibodies followed by the appropriate HRP-conjugated secondary antibodies (goat anti-rabbit IgG and goat anti-mouse IgG, 1:3000; Santa Cruz Biotechnology, CA, USA). Blots were then developed. […]

INS-1 cells [1] = assay: Live-cell phase-contrast images of Tm-treated INS-1 cells; conditions: Tm 0.1 μg/mL, 9c 20 μM, 24 h, FIG. 4B
Description: (A) INS-1 cells were treated with or without Tm (0.1 μg/mL) in the presence of 9c (20 μM) or DMSO for the indicated times. Cleaved caspase-3 and PARP were determined by Western blotting. A-Tubulin was used as a loading control. The data shown are representative of 3 independent experiments. (B) INS-1 cells were treated with or without Tm (0.1 μg/mL) in the presence of 9c (20 μM) or DMSO for 24 h, and live-cell phase-contrast images were acquired (magnification 10×).
To determine whether the increase in cell viability following treatment with 9c was caused by a suppression of apoptotic cell death, levels of cleaved caspase-3 and cleaved PARP were assessed by Western blotting. Caspase-3, a member of executioner caspases, plays essential roles in initiating apoptotic signaling and executing the final stages of cell death as it is responsible for the proteolytic cleavage of many key proteins, such as the nuclear enzyme poly (ADP-ribose) polymerase (PARP) which is a family of proteins involved in a number of cellular processes involving DNA repair and cell death. […] However, upon severe ER stress, caspase 3 undergoes proteolytic cleavage to produce two subunits that dimerize to form the active enzyme, which in turns cleaves PARP.

INS-1 cells [2] = assay: INS-1 cell survival after Tm treatment (CellTiter-Glo, intracellular ATP); conditions: for EC50: Rattus norvegicus, read-out: EC50
Description: A structure-activity-relationship (SAR) study was thus conducted to improve the weak potency of lead compound 5a. Newly synthesized or commercially available compounds were tested for their β-cell-protective activity against ER stress in rat INS-1 β-cells. […] Maximum activity value in the tables is reported as % rescue from Tm (0.1 μg/mL)-induced reduction of cell viability. The values for Tm treatment alone and control (DMSO, without Tm) treatment are designated as 0% and 100%, respectively in all tables. EC50 values (the concentrations that reach half-maximal activity) for INS-1 cell viability were calculated with GraphPad Prism from the data of ten 2-fold serial titration points in all tables. All experiments were performed in triplicate in all tables.
INS-1 cells or βTC6 cells were seeded at 3×10^3 cells/well in a 384-well plate and treated with compounds at the indicated concentrations. After 3 d treatment, the medium was aspirated and 20 μL/well of CellTiter-Glo reagent (Promega, WI, USA) was added for the detection of intracellular ATP levels. Cell viability was measured with an EnVision multilabel plate reader (PerkinElmer, MA, USA).

Compound: COc1ccc(CNc2nc(N3CCCCC3CO)nc3ccccc23)cc1 (racemic) [Compound 9c, (1-(4-((4-methoxybenzyl)amino)quinazolin-2-yl)piperidin-2-yl)methanol]
- ATF4 and CHOP protein levels (ATF4 and CHOP protein): decreased ATF4 and CHOP protein levels
- viable cells observed (phase-contrast) (INS-1 cells [1]): significantly more viable cells
- Maximum activity (INS-1 cells [2]; % rescue from Tm (0.1 μg/mL)-induced reduction of cell viability, 72 h, Tm alone 0%, DMSO 100%, Table 3): 80.4%
- maximum activity (rescue) (INS-1 cells [2]; % rescue from Tm-induced reduction of INS-1 cell viability): 80%
- concentration exhibiting the maximum protective activity (INS-1 cells [2]; INS-1 cells, Tm 0.1 μg/mL, 72 h, based on dose-dependent curves): 5 µM
- EC50 (INS-1 cells [2]; INS1, 72 h, INS-1 cell viability, Tm 0.1 μg/mL, 72 h, ten 2-fold serial titration points, Table 3): 560 ± 180 nM
- EC50 (INS-1 cells [2]; INS1, running text, INS-1 cell viability in presence of Tm): 560 nM
